What was measured:
Assay type in all cases: cell-based
CCR5 locus [1] = test: T7E1 analysis of gene disruption at CCR5 after Cas9 RNP electroporation of primary human T lymphocytes; settings: human CD4+ T lymphocytes, WT Cas9 RNP, 5 μg each RNP per 200,000 cells, 72 hours after electroporation
Excerpt: While transplantation of autologous CD34^+ HSCs genetically modified to prevent expression of the wild-type CXCR4 or the CCR5 would provide a long-term cure to HIV infection, the myeloablative conditioning associated with HSC transplantation destroys host adaptive immunity […] until the T cell pool is reconstituted after HSC engraftment is acheived, which can take several months. This delay in adaptive immune reconstitution puts patients at risk for the development of opportunistic infections during the acute phase of early engraftment following HSC transplantation. […] In this Example, single and multiplex genome editing in human T lymphocytes after electroporation of Cas9 RNP targeting the CXCR4 locus, the CCR5 locus, or both simultaneously (multiplexing) was evaluated after electroporation of CXCR4 and CCR5 gRNAs that were in vitro transcribed and modified to have an ARCA cap at the 5′ end and a polyA (20A) tail at the 3′ end. […] Table 16 depicts experimental design associated with Example 9 to evaluate gene editing as determined by T7E1 endonuclease assay analysis of the CXCR4 and CCR5 loci after electroporation of primary human T lymphocytes with S. aureus and/or S. pyogenes RNPs. […]

CCR5 locus [2] = test: T7E1 endonuclease assay at CCR5 after Cas9 RNP electroporation of human cord blood CD34+ HSCs; settings: human CB CD34+ HSCs, WT Cas9 RNP, 5 μg each per 200,000 cells, 72 hours after electroporation
Excerpt: Transplantation of autologous CD34^+ hematopoietic stem cells (HSCs, also known as hematopoietic stem/progenitor cells or HSPCs) that have been edited to disrupt expression of CXCR4 or CCR5 gene products would prevent entry of the HIV virus HSC progeny that are normally susceptible to HIV infection (e.g., macrophages and CD4 T lymphocytes). Multiplex genome editing with the Cas9 RNP complexed to modified gRNAs precisely alters more than one endogenous gene targets by creating indels at two different cut sites can lead to knock down of gene expression at multiple edited loci. In this Example, single target and multiplex genome editing was evaluated in human umbilical cord blood (CB) CD34^+ cells after electroporation of wild-type S. pyogenes Cas9, wild-type S. aureus Cas9 or D10A nickase. Briefly, Cas9 protein was complexed with modified sgRNAs targeting CXCR4 or CCR5. […] Seventy-two hours after electroporation of RNP with the Amaxa nucleofector system, CD34^+ HSCs were collected, gDNA isolated and CXCR4 and CCR5 PCR products analyzed by T7E1 endonuclease assay to evaluate targeted disruption of these HIV co-receptors (Table 19). Table 19 depicts experimental design associated with Example 10 to evaluate gene editing determined by T7E1 endonuclease assay analysis of the at CXCR4 and CCR5 loci after electroporation of primary human CD34^+ HSCs with S. aureus and/or S. pyogenes RNPs.

human CCR5 gene = test: T7E1 endonuclease assay of CCR5 PCR product after electroporation of S. aureus Cas9 plasmid and gRNA STITCHR product into K562 cells; settings: 750 ng S. aureus Cas9 plasmid DNA and 250 ng STITCHR product, 48 and 72 hours after electroporation
Excerpt: To identify gRNAs that efficiently target disruption of the human CCR5 gene, eleven gRNAs were selected from a larger list of gRNAs obtained from in silico prediction of gRNAs with S. aureus specific PAM sequences. In silico predicted gRNAs were tiered according to the strategy described in Section 8. An abbreviated list of eleven gRNAs with the lowest predictive off-target scores were selected for subsequent screening experiments, based on proximity to the naturally occurring de1ta32 mutation in CCR5 that has been associated with resistance to HIV. The target-specific complementary region of the selected list of eleven gRNAs are depicted in Table 15.
A DNA plasmid encoding an S. aureus expression cassette (AF002) and a gRNA-specific STITCHR product, which is a DNA molecule consisting of a U6 promoter driving expression of the chimeric gRNA (i.e., a target-specific complementary sequence and the S. aureus gRNA scaffold), were electroporated into K562 cells using the Amaxa Nucleofector system and the program and protocol for K562 cells per the manufacturer's instructions. In brief, 750 ng S. aureus Cas9 plasmid DNA and 250 ng of STITCHR product were used for each gRNA. […]

CCR5_Sa3: S. aureus gRNA targeting CCR5; GUGGUGACAAGUGUGAUCAC (SEQ ID NO: 488) (RNA, backbone not given here; in vitro transcribed gRNA with scaffold, 5' ARCA cap, 3' polyA (20A) tail)
% editing at CCR5 (CCR5 locus [1]): 1.98% | % editing at CCR5 (CCR5 locus [2]): 0.44% | indels in CCR5 (human CCR5 gene): about 39%

Source: patent publication US20180119123A1, “CRISPR/CAS-RELATED METHODS AND COMPOSITIONS FOR TREATING HIV INFECTION AND AIDS” (EDITAS MEDICINE, INC., priority 2015, published 2018)
